Among the data in patent US20240270751A1, “Pyrazolopyridinone Compounds” (BeiGene Ltd., priority 2021, published 2024) are IC50 values, retold here.

pIC50: −log10 of the molar value. Where two headings read alike, the source gives them in different places.

For assay [1], the target named is DGKζ (Homo sapiens (Human), UniProt Q13574). The assay can be described thus: Biochemical DGK IC50 assay, DGKζ ADP-Glo assay. Particulars: 0.5 nM enzyme, 140 μM ATP, 80 μM DAG; for pIC50: read-out: DGKζ ADP-Glo assay IC50. The method in brief:
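ADP formation measured by ADP-Glo luminescence, with test compounds at final 1.55–10000 nM or 23.3–150000 nM. Enzyme: purified full-length human DGKζ from Sf9 insect cells; substrate: DAG/PS micelles in 25 mM HEPES pH 7.0, 0.5 mM EDTA, octyl glucoside.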
In general terms: ADP-Glo turns the ADP formed in a reaction into a luminescent signal.

Assay [2] concerns the target DGKα (Homo sapiens (Human), UniProt P23743). The assay can be described thus: Biochemical DGK IC50 assay, DGKα ADP-Glo assay. Particulars: 7.5 nM enzyme, 140 μM ATP, 80 μM DAG. An outline of the steps: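 Compounds at final 1.55˜10000 nM or 23.3˜150000 nM were tested against full-length DGKα. Substrate was lipid micelles of DAG and PS resuspended in 25 mM HEPES pH 7.0 with 0.5 mM EDTA and 160 mM octyl β-D-glucopyranoside. ADP formed was detected by ADP-Glo.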

DGKα, sequence (P23743 whole entry): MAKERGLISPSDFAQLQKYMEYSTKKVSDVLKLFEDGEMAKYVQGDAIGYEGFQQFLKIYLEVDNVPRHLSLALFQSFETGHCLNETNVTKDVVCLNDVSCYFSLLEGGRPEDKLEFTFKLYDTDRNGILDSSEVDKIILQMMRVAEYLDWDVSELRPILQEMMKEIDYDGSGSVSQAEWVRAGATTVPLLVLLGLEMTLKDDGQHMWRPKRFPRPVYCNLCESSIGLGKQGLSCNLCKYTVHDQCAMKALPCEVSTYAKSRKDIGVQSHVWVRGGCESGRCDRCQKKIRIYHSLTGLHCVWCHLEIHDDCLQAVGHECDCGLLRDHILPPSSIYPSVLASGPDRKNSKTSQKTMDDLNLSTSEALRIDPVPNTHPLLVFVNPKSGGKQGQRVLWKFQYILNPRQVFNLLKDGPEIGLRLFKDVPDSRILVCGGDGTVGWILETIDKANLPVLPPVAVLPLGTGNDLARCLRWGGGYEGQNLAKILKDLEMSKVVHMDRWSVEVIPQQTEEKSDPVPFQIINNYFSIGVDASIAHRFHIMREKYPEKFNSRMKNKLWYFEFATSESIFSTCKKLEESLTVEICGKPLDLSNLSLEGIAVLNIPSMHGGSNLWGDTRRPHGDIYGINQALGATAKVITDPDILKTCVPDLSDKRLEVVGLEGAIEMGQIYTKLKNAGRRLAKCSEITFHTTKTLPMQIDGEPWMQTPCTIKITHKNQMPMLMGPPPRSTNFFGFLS
DGKζ, sequence (Q13574 other isoform, or with tags, fused parts or gaps): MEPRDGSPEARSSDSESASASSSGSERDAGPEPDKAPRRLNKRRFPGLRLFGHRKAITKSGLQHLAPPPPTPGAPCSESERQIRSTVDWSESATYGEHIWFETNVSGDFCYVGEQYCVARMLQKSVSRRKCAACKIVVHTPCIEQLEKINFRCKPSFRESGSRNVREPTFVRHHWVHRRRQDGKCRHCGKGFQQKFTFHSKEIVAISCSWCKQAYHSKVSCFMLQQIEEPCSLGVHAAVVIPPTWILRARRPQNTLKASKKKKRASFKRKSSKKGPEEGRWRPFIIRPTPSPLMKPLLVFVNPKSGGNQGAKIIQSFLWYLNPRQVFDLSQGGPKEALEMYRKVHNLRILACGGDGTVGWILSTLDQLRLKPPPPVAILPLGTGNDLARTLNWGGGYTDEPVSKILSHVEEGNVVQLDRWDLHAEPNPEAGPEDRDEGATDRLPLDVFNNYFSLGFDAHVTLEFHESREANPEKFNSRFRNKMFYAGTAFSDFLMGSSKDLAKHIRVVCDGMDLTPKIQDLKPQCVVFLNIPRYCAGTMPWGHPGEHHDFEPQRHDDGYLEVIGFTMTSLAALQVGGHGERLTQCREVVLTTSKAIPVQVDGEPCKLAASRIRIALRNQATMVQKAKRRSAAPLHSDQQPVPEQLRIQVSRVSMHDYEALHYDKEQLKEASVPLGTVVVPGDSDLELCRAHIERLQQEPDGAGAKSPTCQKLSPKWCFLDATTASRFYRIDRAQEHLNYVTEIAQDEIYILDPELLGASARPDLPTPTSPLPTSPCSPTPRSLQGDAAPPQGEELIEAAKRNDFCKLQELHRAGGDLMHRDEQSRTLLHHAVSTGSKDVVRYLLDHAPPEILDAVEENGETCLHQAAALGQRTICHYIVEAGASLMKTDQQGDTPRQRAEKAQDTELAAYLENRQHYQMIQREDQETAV

Turning to `CC(c1ccc(F)cc1OC(F)F)N1C[C@H](C)N(c2cc(=O)n(C)c3cn(CC#N)nc23)C[C@H]1C` (stereo partly drawn) [Compound A247, 2-(7-((2S,5R)-4-(1-(2-(difluoromethoxy)-4-fluorophenyl)ethyl)-2,5-dimethylpiperazin-1-yl)-4-methyl-5-oxo-4,5-dihydro-2H-pyrazolo[4,3-b]pyridin-2-yl)acetonitrile], the pIC50 in assay [1] was 6.55; in assay [2], under 5.00.

`CC(c1cnc2c(c1)OCCO2)N1C[C@H](C)N(c2cc(=O)n(C)c3cn(CC#N)nc23)C[C@H]1C` (some centres unmarked) [Compound A250]: the pIC50 was 5.52 in assay [1] and under 5.00 in assay [2].

Turning to `CC(c1ccc(Cl)cc1C(F)(F)F)N1C[C@H](C)N(c2cc(=O)n(C)c3cn(CC#N)nc23)C[C@H]1C` (some centres unmarked) [Compound A251], the pIC50 is 5.49 in assay [1] and under 5.00 in assay [2].

Turning to `CC(c1ccc(F)cc1C(F)F)N1C[C@H](C)N(c2cc(=O)n(C)c3cn(CC#N)nc23)C[C@H]1C` (some centres unmarked) [Compound A252], the values for the negative logarithm of the IC50 (pIC50) in assay [1] and in assay [2] were 5.86 and under 5.00, respectively.

For `CC(c1ccc(F)cc1C(C)(F)F)N1C[C@H](C)N(c2cc(=O)n(C)c3cn(CC#N)nc23)C[C@H]1C` (stereo partly drawn) [Compound A254, 2-(7-((2S,5R)-4-(1-(2-(1,1-difluoroethyl)-4-fluorophenyl)ethyl)-2,5-dimethylpiperazin-1-yl)-4-methyl-5-oxo-4,5-dihydro-2H-pyrazolo[4,3-b]pyridin-2-yl)acetonitrile], the pIC50 is 6.51 in assay [1] and under 5.00 in assay [2].

Regarding `CCC(c1ccc2nccnc2c1)N1C[C@H](C)N(c2cc(=O)n(C)c3cn(CC#N)nc23)C[C@H]1C` (some centres unmarked) [Compound A255], the figures for the pIC50 in assay [1] and in assay [2] were 6.71 and under 5.00, respectively.

Regarding `CCC(c1ccc(F)cc1C(F)(F)F)N1C[C@H](C)N(c2cc(=O)n(C)c3cn(CC#N)nc23)C[C@H]1C` (some centres unmarked) [Compound A256], the pIC50 was 6.50 in assay [1] and under 5.00 in assay [2].

`[2H]C([2H])([2H])n1c(=O)cc(N2C[C@@H](C)N(C(C)c3ccc(F)cc3C(F)(F)F)C[C@@H]2C)c2nn(CC#N)cc21` (stereo partly drawn) [Compound A257, 2-(7-((2S,5R)-4-(1-(4-fluoro-2-(trifluoromethyl)phenyl)ethyl)-2,5-dimethylpiperazin-1-yl)-4-(methyl-d3)-5-oxo-4,5-dihydro-2H-pyrazolo[4,3-b]pyridin-2-yl)acetonitrile]: the pIC50 in assay [1] was 6.19; in assay [2] it was under 5.00.

As for `C[C@@H]1CN(c2cc(=O)n(C)c3c(F)nn(CC#N)c23)[C@@H](C)CN1[C@H](C)c1ccc2nccnc2c1` [Compound A258, 2-(7-((2S,5R)-2,5-dimethyl-4-((R)-1-(quinoxalin-6-yl)ethyl)piperazin-1-yl)-3-fluoro-4-methyl-5-oxo-4,5-dihydro-1H-pyrazolo[4,3-b]pyridin-1-yl)acetonitrile, or 2-(7-((2S,5R)-2,5-dimethyl-4-((S)-1-(quinoxalin-6-yl)ethyl)piperazin-1-yl)-3-fluoro-4-methyl-5-oxo-4,5-dihydro-1H-pyrazolo[4,3-b]pyridin-1-yl)acetonitrile], the pIC50 in assay [1] and in assay [2] was under 5.00 throughout.

`CC[C@@H]1CN(c2cc(=O)n(C)c3cn(CC#N)nc23)[C@@H]([C@@H](C)O)CN1C(C)c1ccc2nccnc2c1` (stereo partly drawn) [Compound A259, 2-(7-((2R,5R)-5-ethyl-2-((R)-1-hydroxyethyl)-4-(1-(quinoxalin-6-yl)ethyl)piperazin-1-yl)-4-methyl-5-oxo-4,5-dihydro-2H-pyrazolo[4,3-b]pyridin-2-yl)acetonitrile]: the negative logarithm of the IC50 (pIC50) in assay [1] is 6.42; in assay [2] it was under 5.00.

`CC(c1ccc2nccnc2c1)N1C[C@H](C(F)F)N(c2cc(=O)n(C)c3cn(CC#N)nc23)C[C@H]1C` (stereo partly drawn) [Compound A261, 2-(7-((2R,5R)-2-(difluoromethyl)-5-methyl-4-(1-(quinoxalin-6-yl)ethyl)piperazin-1-yl)-4-methyl-5-oxo-4,5-dihydro-2H-pyrazolo[4,3-b]pyridin-2-yl)acetonitrile]: the pIC50 in assay [1] is 5.63; in assay [2], under 5.00.

For the molecule `C[C@@H]1CN(c2cc(=O)n(C)c3cn(CC#N)nc23)[C@@H](C)CN1C(c1ccc2nccnc2c1)C(F)F` (stereo partly drawn) [Compound A262, 2-(7-((2S,5R)-4-(2,2-difluoro-1-(quinoxalin-6-yl)ethyl)-2,5-dimethylpiperazin-1-yl)-4-methyl-5-oxo-4,5-dihydro-2H-pyrazolo[4,3-b]pyridin-2-yl)acetonitrile], the figures for the pIC50 in assay [1] and in assay [2] were 6.82 and under 5.00, respectively.

In the case of `C[C@@H]1CN(c2cc(=O)n(C)c3c(Cl)n(CC#N)nc23)[C@@H](C)CN1[C@H](C)c1ccc2nccnc2c1` [Compound A263, 2-(3-chloro-7-((2S,5R)-2,5-dimethyl-4-((R)-1-(quinoxalin-6-yl)ethyl)piperazin-1-yl)-4-methyl-5-oxo-4,5-dihydro-2H-pyrazolo[4,3-b]pyridin-2-yl)acetonitrile, or 2-(3-chloro-7-((2S,5R)-2,5-dimethyl-4-((S)-1-(quinoxalin-6-yl)ethyl)piperazin-1-yl)-4-methyl-5-oxo-4,5-dihydro-2H-pyrazolo[4,3-b]pyridin-2-yl)acetonitrile], the results for the pIC50 in assay [1] and in assay [2] were 7.07 and 4.38, respectively.

In the case of `CC[C@@H]1CN(c2cc(=O)[nH]c3c(C)n(CC#N)nc23)[C@@H](C)CN1C(C)c1ccc2nccnc2c1` (some centres unmarked) [Compound A264], the results for the pIC50 in assay [1] and in assay [2] were 6.67 and under 5.00, respectively.

As for `CC[C@H]1CN(C(C)c2ccc(F)cc2C(F)(F)F)[C@H](CC)CN1c1cc(=O)[nH]c2cn(CC#N)nc12` (stereo partly drawn) [Compound A265, 2-(7-((2S,5R)-2,5-diethyl-4-(1-(4-fluoro-2-(trifluoromethyl)phenyl)ethyl)piperazin-1-yl)-5-oxo-4,5-dihydro-2H-pyrazolo[4,3-b]pyridin-2-yl)acetonitrile], the figures for the pIC50 in assay [1] and in assay [2] were 6.13 and under 5.00, respectively.

The molecule `[2H]c1nc2ccc(C(C)N3C[C@H](C)N(c4cc(=O)n(C)c5cn(CC#N)nc45)C[C@H]3C)cc2nc1[2H]` (stereo partly drawn) [Compound A268, 2-(7-((2S,5R)-2,5-dimethyl-4-(1-(quinoxalin-6-yl-2,3-d2)ethyl)piperazin-1-yl)-4-methyl-5-oxo-4,5-dihydro-2H-pyrazolo[4,3-b]pyridin-2-yl)acetonitrile] gave an IC50 in assay [1] (DGKζ ADP-Glo assay IC50(nM)) of 133 nM. The molecule further had a pIC50 in assay [2] of 4.79.

On to `Cc1cnc2ccc(C(C)N3C[C@H](C)N(c4cc(=O)n(C)c5cn(CC#N)nc45)C[C@H]3C)cc2n1` (stereo partly drawn) [Compound A269 (RII), 2-(7-((2S,5R)-2,5-dimethyl-4-(1-(3-methylquinoxalin-6-yl)ethyl)piperazin-1-yl)-4-methyl-5-oxo-4,5-dihydro-2H-pyrazolo[4,3-b]pyridin-2-yl)acetonitrile], for which the pIC50 was 7.46 in assay [1] and under 5.00 in assay [2].

Take `Cc1cnc2ccc([C@@H](C)N3C[C@H](C)N(c4cc(=O)n(C)c5cn(CC#N)nc45)C[C@H]3C)cc2n1` [Compound A269c, 2-(7-((2S,5R)-2,5-dimethyl-4-((R)-1-(3-methylquinoxalin-6-yl)ethyl)piperazin-1-yl)-4-methyl-5-oxo-4,5-dihydro-2H-pyrazolo[4,3-b]pyridin-2-yl)acetonitrile]: the pIC50 in assay [1] and in assay [2] was under 5.00 in each case.

In the case of `COc1cnc2ccc(C(C)N3C[C@H](C)N(c4cc(=O)n(C)c5cn(CC#N)nc45)C[C@H]3C)cc2n1` (stereo partly drawn) [Compound A270, 2-(7-((2S,5R)-4-(1-(3-methoxyquinoxalin-6-yl)ethyl)-2,5-dimethylpiperazin-1-yl)-4-methyl-5-oxo-4,5-dihydro-2H-pyrazolo[4,3-b]pyridin-2-yl)acetonitrile], the figures for the pIC50 in assay [1] and in assay [2] were 6.77 and 4.40, respectively.

For the molecule `CC(c1ccc(F)cc1C1(O)COC1)N1C[C@H](C)N(c2cc(=O)n(C)c3cn(CC#N)nc23)C[C@H]1C` (stereo partly drawn) [Compound A271, 2-(7-((2S,5R)-4-(1-(4-fluoro-2-(3-hydroxyoxetan-3-yl)phenyl)ethyl)-2,5-dimethylpiperazin-1-yl)-4-methyl-5-oxo-4,5-dihydro-2H-pyrazolo[4,3-b]pyridin-2-yl)acetonitrile], the pIC50 in assay [1] and in assay [2] was under 5.00 throughout.

As for `CC(c1c(Cl)cc(F)cc1Cl)N1C[C@H](C)N(c2cc(=O)n(C)c3cn(CC#N)nc23)C[C@H]1C` (some centres unmarked) [Compound A272], the negative logarithm of the IC50 (pIC50) in assay [1] is 6.39; in assay [2], under 5.00.

As to `COc1c(C(C)N2C[C@H](C)N(c3cc(=O)n(C)c4cn(CC#N)nc34)C[C@H]2C)ccc(F)c1F` (some centres unmarked) [Compound A273], the pIC50 is 5.26 in assay [1] and under 5.00 in assay [2].

Take `COc1c(N2C[C@@H](C)N([C@@H](C)c3ccc4nccnc4c3)C[C@@H]2C)c2nn(CC#N)cc2n(C)c1=O` [Compound A274, 2-(7-((2S,5R)-2,5-dimethyl-4-((S)-1-(quinoxalin-6-yl)ethyl)piperazin-1-yl)-6-methoxy-4-methyl-5-oxo-4,5-dihydro-2H-pyrazolo[4,3-b]pyridin-2-yl)acetonitrile]: the pIC50 in assay [1] and in assay [2] was under 5.00 throughout.

For `[2H]C([2H])([2H])n1c(=O)cc(N2C[C@@H](CC)N(C(C)c3ccc(F)cc3C(F)(F)F)C[C@@H]2CC)c2nn(CC#N)cc21` (stereo partly drawn) [Compound A276, 2-(7-((2S,5R)-2,5-diethyl-4-(1-(4-fluoro-2-(trifluoromethyl)phenyl)ethyl)piperazin-1-yl)-4-(methyl-d3)-5-oxo-4,5-dihydro-2H-pyrazolo[4,3-b]pyridin-2-yl)acetonitrile], the values for the negative-log IC50 (pIC50) in assay [1] and in assay [2] were 6.88 and under 3.82, respectively.

Consider `CC[C@H]1CN(C(C)c2ccc(Cl)cc2C(F)(F)F)[C@H](CC)CN1c1cc(=O)n(C)c2cn(CC#N)nc12` (some centres unmarked) [Compound A277], for which the pIC50 in assay [1] was 5.68; in assay [2] it was under 5.00.

One may read the pIC50 as −log10 of the IC50, conventionally taken in molar units. By IC50 is commonly meant the concentration that inhibits the measured activity by half.
